# Species: Rattus norvegicus
# Test: Open TG-GATES - Regimen: Single
# Assay type: toxicity, organism-based, Sprague-Dawley
# Design: regimen Single, gender Male, age 6 weeks
# Details: in vivo, po, 0 mg/kg, route gavage, dose level Control; for APTT / Bas / Eos / Fbg / Hb / Ht / Lym / MCH / MCHC / MCV / Mono / Neu / PT / Plat / RBC / Ret / WBC: tissue Blood; for KIDNEY_L / KIDNEY_R / KIDNEY_TOTAL: tissue Kidney; for LIVER: tissue Liver; for A/G / ALP / ALT / AST / BUN / CRE / Ca / Cl / DBIL / GLC / IP / K / LDH / Na / PL / RALB / TBIL / TC / TG / TP / gamma-GTP: tissue Plasma
smiles,measurement,setting,value
NC1=NC(=O)C(c2ccccc2)O1 (configuration not stated) [PEMOLINE],TERMINAL_BW,3 h,210.7 g
same,APTT,3 h,17.2 s
same,Bas,3 h,0%
same,Eos,3 h,0.8%
same,Fbg,3 h,266 mg/dL
same,Hb,3 h,13.1 g/dL
same,Ht,3 h,38.2%
same,Lym,3 h,78.2%
same,MCH,3 h,21.6 pg
same,MCHC,3 h,34.3%
same,MCV,3 h,62.9 fL
same,Mono,3 h,3.8%
same,Neu,3 h,16.6%
same,PT,3 h,13.4 s
same,Plat,3 h,113.2 x10_4/uL
same,RBC,3 h,609.4 x10_4/ul
same,Ret,3 h,9.5%
same,WBC,3 h,87.4 x10_2/uL
same,KIDNEY_L,3 h,0.9 g
same,KIDNEY_R,3 h,1 g
same,KIDNEY_TOTAL,3 h,1.9 g
same,LIVER,3 h,9.1 g
same,A/G,3 h,1
same,ALP,3 h,1454.8 IU/L
same,ALT,3 h,44.8 IU/L
same,AST,3 h,77 IU/L
same,BUN,3 h,9.8 mg/dL
same,CRE,3 h,0.2 mg/dL
same,Ca,3 h,10.7 mg/dL
same,Cl,3 h,104.2 meq/L
same,DBIL,3 h,0.014 mg/dL
same,GLC,3 h,175.2 mg/dL
same,IP,3 h,8.8 mg/dL
same,K,3 h,4 meq/L
same,LDH,3 h,69.6 IU/L
same,Na,3 h,139.8 meq/L
same,PL,3 h,127 mg/dL
same,RALB,3 h,2.6 g/dL
same,TBIL,3 h,0.044 mg/dL
same,TC,3 h,78 mg/dL
same,TG,3 h,40.4 mg/dL
same,TP,3 h,5.3 g/dL
same,gamma-GTP,3 h,1.2 IU/L
same,TERMINAL_BW,6 h,209.5 g
same,APTT,6 h,17.2 s
same,Bas,6 h,0%
same,Eos,6 h,1%
same,Fbg,6 h,286.2 mg/dL
same,Hb,6 h,13.3 g/dL
same,Ht,6 h,39.1%
same,Lym,6 h,77.6%
same,MCH,6 h,22.4 pg
same,MCHC,6 h,34.1%
same,MCV,6 h,65.9 fL
same,Mono,6 h,3%
same,Neu,6 h,18%
same,PT,6 h,13.2 s
same,Plat,6 h,117 x10_4/uL
same,RBC,6 h,594.6 x10_4/ul
same,Ret,6 h,9.1%
same,WBC,6 h,88.4 x10_2/uL
same,KIDNEY_L,6 h,0.9 g
same,KIDNEY_R,6 h,0.9 g
same,KIDNEY_TOTAL,6 h,1.8 g
same,LIVER,6 h,8.8 g
same,A/G,6 h,1
same,ALP,6 h,1338 IU/L
same,ALT,6 h,41.2 IU/L
same,AST,6 h,72.8 IU/L
same,BUN,6 h,8.2 mg/dL
same,CRE,6 h,0.2 mg/dL
same,Ca,6 h,10.6 mg/dL
same,Cl,6 h,104.4 meq/L
same,DBIL,6 h,0.01 mg/dL
same,GLC,6 h,173.8 mg/dL
same,IP,6 h,9.4 mg/dL
same,K,6 h,3.9 meq/L
same,LDH,6 h,57.6 IU/L
same,Na,6 h,140.4 meq/L
same,PL,6 h,138.6 mg/dL
same,RALB,6 h,2.6 g/dL
same,TBIL,6 h,0.038 mg/dL
same,TC,6 h,84.2 mg/dL
same,TG,6 h,46.8 mg/dL
same,TP,6 h,5.3 g/dL
same,gamma-GTP,6 h,1.2 IU/L
same,TERMINAL_BW,9 h,210.1 g
same,APTT,9 h,17.2 s
same,Bas,9 h,0%
same,Eos,9 h,1%
same,Fbg,9 h,293.8 mg/dL
same,Hb,9 h,12.8 g/dL
same,Ht,9 h,37.5%
same,Lym,9 h,75.4%
same,MCH,9 h,21.5 pg
same,MCHC,9 h,34.2%
same,MCV,9 h,62.8 fL
same,Mono,9 h,3.2%
same,Neu,9 h,20.2%
same,PT,9 h,13.3 s
same,Plat,9 h,127.3 x10_4/uL
same,RBC,9 h,598.8 x10_4/ul
same,Ret,9 h,9.5%
same,WBC,9 h,89 x10_2/uL
same,KIDNEY_L,9 h,0.9 g
same,KIDNEY_R,9 h,0.9 g
same,KIDNEY_TOTAL,9 h,1.7 g
same,LIVER,9 h,8.1 g
same,A/G,9 h,1
same,ALP,9 h,1391.4 IU/L
same,ALT,9 h,41.6 IU/L
same,AST,9 h,74.8 IU/L
same,BUN,9 h,8.2 mg/dL
same,CRE,9 h,0.2 mg/dL
same,Ca,9 h,10.3 mg/dL
same,Cl,9 h,104.4 meq/L
same,DBIL,9 h,0.01 mg/dL
same,GLC,9 h,168.8 mg/dL
same,IP,9 h,10.7 mg/dL
same,K,9 h,3.8 meq/L
same,LDH,9 h,53.8 IU/L
same,Na,9 h,140.8 meq/L
same,PL,9 h,121.6 mg/dL
same,RALB,9 h,2.7 g/dL
same,TBIL,9 h,0.04 mg/dL
same,TC,9 h,74.2 mg/dL
same,TG,9 h,27.6 mg/dL
same,TP,9 h,5.3 g/dL
same,gamma-GTP,9 h,1.6 IU/L
same,TERMINAL_BW,24 h,216.7 g
same,APTT,24 h,17.2 s
same,Bas,24 h,0%
same,Eos,24 h,1%
same,Fbg,24 h,274.6 mg/dL
same,Hb,24 h,12.8 g/dL
same,Ht,24 h,37.7%
same,Lym,24 h,74.2%
same,MCH,24 h,21.8 pg
same,MCHC,24 h,34%
same,MCV,24 h,64.2 fL
same,Mono,24 h,3.8%
same,Neu,24 h,20.4%
same,PT,24 h,13 s
same,Plat,24 h,114.9 x10_4/uL
same,RBC,24 h,588.4 x10_4/ul
same,Ret,24 h,8.8%
same,WBC,24 h,92.6 x10_2/uL
same,KIDNEY_L,24 h,0.9 g
same,KIDNEY_R,24 h,0.9 g
same,KIDNEY_TOTAL,24 h,1.9 g
same,LIVER,24 h,9.9 g
same,A/G,24 h,1
same,ALP,24 h,1629.4 IU/L
same,ALT,24 h,50.4 IU/L
same,AST,24 h,79 IU/L
same,BUN,24 h,15 mg/dL
same,CRE,24 h,0.2 mg/dL
same,Ca,24 h,10.7 mg/dL
same,Cl,24 h,105 meq/L
same,DBIL,24 h,0.018 mg/dL
same,GLC,24 h,174.6 mg/dL
same,IP,24 h,8.2 mg/dL
same,K,24 h,4 meq/L
same,LDH,24 h,58.8 IU/L
same,Na,24 h,141 meq/L
same,PL,24 h,144.6 mg/dL
same,RALB,24 h,2.7 g/dL
same,TBIL,24 h,0.032 mg/dL
same,TC,24 h,82.6 mg/dL
same,TG,24 h,89 mg/dL
same,TP,24 h,5.4 g/dL
same,gamma-GTP,24 h,1 IU/L

# From ChEMBL document CHEMBL3885861, “Open TG-GATES”
